Reference: patent US20070031889A1, “Method for rapidly detecting quinolone-resistant Salmonella ssp. and the probes and primers utilized therein” (Bureau of Food and Drug Analysis, Department of Health, …, priority 2004, published 2007)
In brackets after ≈: the same amount, converted by molar mass. Several values for one entry are separate records, joined by “and”; a condition that tells them apart may be missing. Equal values may be shown once. Read-outs that look alike come from different tables or passages of the source. {LC640} = LightCycler Red 640 dye label (LCRED640); {FL} = fluorescein label (FL); {P} = phosphate

Columns and labels:
[1] = test system: Salmonella strains; experiment: Minimum inhibitory concentration (MIC) of quinolone antibacterials by E-test strips; format: cell-based, Salmonella spp.; conditions: for MIC: Salmonella
Description: The minimum inhibitory concentration was deterrnined by the E-test strips of quinolone antibacterials (AB BIODISC North America Inc., Solna, Sweden). The bacterial strain to be tested was streak plated on xylose lysin desoxycholate agar (XLD) (Merck kGaA, Darmstadt, Germany). After the purity of said strain was verified, the strain was grown on tryptic soy agar (TSA) medium (Merck kGaA, Darrnstadt, Germany) at 35-37° C. for 16-18 hours and then suspended in sterile water. The bacterial concentration was adjusted to 80% of turbidity (corresponding to 0.5 MacFarland turbidity standard, and the bacterial content is approximately […]) using Vitek Special DR 100 Colorimeter (HACH Company, Colorado, USA). Then, 0.1 ml of the bacterial aliquot was placed on the prepared Mueller-Hinton (M-H) agar medium (having the diameter of 9 cm and the thickness of 4.0±0.5 mm) (Merck kGaA, Darmstadt, Germany) and the aliquot was spread evenly on the medium by a sterilized glass rod. The medium plate stood still for 10 to 15 minutes to ensure that the bacterial aliquot completely penetrated into the medium. Thereafter, a sterilized tweezer was used to clip the E region of the E-test antibacterial test strip which was then placed on the inoculated M-H medium plate. Two E-test trips were placed parallel to each other and symmetrically on each medium plate. Said medium plates were then incubated at 35-37° C. for 16-18 hours. The results were determined based on the standards from National Committee for Clinical Laboratory Standard (NCCLS, 2001), USA. Each antibacterial agent was tested in a duplicate experiment, and E. coli ATCC 25922/CCRC 11509 was used as the control of the tested strains in each experiment.

[2] = test system: single-stranded PCR products of Salmonella gyrA gene; experiment: Real-time PCR with melting curve analysis of gyrA4 hybridization probes; format: binding, Salmonella spp.
Description: (§1) The bacterial strain to be tested was streak plated on XLD medium. After the purity of said strain was verified, the strain was grown in TSB broth at 35±1° C. for 18±2 hours. Following refrigerated centrifugation, Wizard® Genomic DNA Purification Kit was used to extract the genomic DNA. One microliter of the DNA extraction solution was added to the reaction mix (containing 0.5 μM primer set, 0.2 μM probe set, 4 mM MgCl2, and 1×LightCycler DNA Master hybridization mix) to a final volume of 20 μl, which was then placed in LightCycler (Roche Applied Science, Mannheim, Germany) for amplification and melting reaction of the hybrid of the PCR product with the hybridization probes.

[3] = test system: single-stranded PCR products of parC gene; experiment: Real-time PCR with melting curve analysis of parC238 hybridization probes; format: binding, Salmonella spp.
Description: as §1

[4] = Table 4, gyrA single point mutation strains (52)

Molecule: O=C(O)c1cn(C2CC2)c2cc(N3CCNCC3)c(F)cc2c1=O [ciprofloxacin]
- Susceptibility Cp ([1]; Mutant strains (75)): S/R
- Susceptibility ([1]; Table 4, Wild type strains): S
- Susceptibility [1, 4]: S
- Susceptibility Cp ([1]; Wild type strains (45)): S (S, susceptibility, MICs 0.006-0.38 μg/ml)
- Ciprofloxacin susceptibility ([1]; parC mutant (A238C) strains (23)): Resistant
- Ciprofloxacin susceptibility ([1]; parC wild type strains (97)): Sensitive
- Susceptibility ([1]; {}): S

Molecule: CCn1cc(C(=O)O)c(=O)c2ccc(C)nc21 [nalidixic acid]
- share of the 120 Salmonella strains tested that were resistant ([1]; 120 strains from animal foods and clinical samples): 62.5%
- MIC ([1]; read-out: MICs, resistant strains (gyrA mutants)): ≥ 256 µg/mL
- MIC ([1]; susceptible strains (wild type), read-out: MICs): 2.5 to 7 µg/mL (≈ 10.8 to 30.1 µM)
- Susceptibility ([1]; Table 4, Wild type strains): S
- Susceptibility [1, 4]: R
- Susceptibility NA ([1]; Wild type strains (45)): S (S, susceptibility, MICs 2.5˜7 μg/ml)
- Susceptibility ([1]; {}): R
- Susceptibility NA ([1]; {}): R (R, resistance, MICs ≧ 256 μg/ml)

Molecule: gyrA4: hybridization probe set of gyrA4-FL (SEQ ID NO: 5) and gyrA4-LC640 (SEQ ID NO: 6) (DNA 1 CGATTCCGCAGTGTATGACACC; DNA 2 CGTTCGTATGGCGCAGCCATTCTCG; DNA 1: DNA, 3' {FL}, backbone not given here; DNA 2: DNA, 5' {LC640}, 3' {P}, backbone not given here; listed as Salmonella sp.)
- Tm ± SD (CV %) ([2]; C248A mutant strains): 58.6±0.3 °C and 58.6 ± 0.3 (0.51) ° C.
- Tm ± SD (CV %) ([2]; C248T mutant strains): 59.1±0.2 °C and 59.1 ± 0.2 (0.40) ° C.
- Tm ± SD (CV %) ([2]; G259A mutant strains): 59.8±0.4 °C and 59.8 ± 0.4 (0.60) ° C.
- Tm ± SD (CV %) ([2]; G259T mutant strains): 59.6±0.4 °C and 59.6 ± 0.4 (0.68) ° C.
- Tm ± SD (CV %) ([2]; Wild type strains): 63.6±1.0 °C and 63.6 ± 1.0 (1.62) ° C.
- Tm ± SD (CV %) ([2]; double point mutation C248T/A260G strains): 54.6±0.2 °C and 54.6 ± 0.2 (0.27) ° C.
- Tm ± SD (CV %) ([2]; single point mutation strains (C248A, C248T, G259A, G259T)): 59.2±0.5 °C and 59.2 ± 0.5 (0.89) ° C.

Molecule: parC238: hybridization probe set of parC238-FL (SEQ ID NO: 7) and parC238-LC640 (SEQ ID NO: 8) (DNA 1 CGACCGCGCCTGCT; DNA 2 GAAGCCATGGTGCTGATGGCG; DNA 1: DNA, 3' {FL}, backbone not given here; DNA 2: DNA, 5' {LC640}, 3' {P}, backbone not given here; listed as Salmonella sp.)
- Tm ± SD (CV %) ([3]; parC mutant (A238C) strains): 61.4±0.3 °C
- Tm ± SD (CV %) ([3]; parC wild type strains): 47.4±0.5 °C
